Results reported in patent US20230104283A1, “JNK INHIBITOR, AND PHARMACEUTICAL COMPOSITION AND USE THEREOF” (WUHAN LL SCIENCE AND TECHNOLOGY DEVELOPMENT CO. , LTD, priority 2019, published 2023).

Columns and labels:
[1] = biological target: T1, JNK1 kinase (Homo sapiens, UniProt P45983); experiment: JNK1 activity screening (time-resolved fluorometric HTRF kinase assay); format: biochemical; conditions: enzymatic assay, activity level
T1 construct: purchased Carna Biosciences 04-163
Procedure: JNK1 activity screening. JNK1 activity was detected using a 96-well (Cisbio, 66PL96025) time-resolved fluorometric assay. The JNK1 assay was conducted in the following assay buffer: 10 mM MgCl2 (Sigma, M1028), 1 mM MnCl2 (Sigma, M1787), 1 mM DTT (Sigma, D0632) and 1× Enzymatic buffer/kinase (Cisbio, 62EZBFDC). By using the assay buffer, 3 μL of 0.1 ng/μL JNK1 kinase (Carna Biosciences, 04-163) was added to a 96-well microplate, and then 4 μL of a compound diluted appropriately (with a DMSO content of 2.5%) was added. The resulting mixture was incubated at room temperature for 0.5 h. To start the reaction, the assay buffer was used to mix 0.003 μM ATP (Aladdin, A7699) and 30 μM substrate ATF2-GST fusion (Cisbio, 64CUS000AFPEB), and 3 μL of the mixed solution was added to the microplate. The resulting mixture was incubated at room temperature for 2.5 h. HTRF detection buffer ([…], 62SDBRDD) was used then to prepare a mixture of 5 μg/mL MAb Anti GST-XL665 (Cisbio, 61GSTXLA) and 0.045 μg/mL PAb Anti-phospho ATF2-K (Cisbio, 61P12KAZ), and 10 μL of the mixture was added to the plate to terminate the reaction. After incubation for about 12 h, the plate was read on a Perkin-Elmer Envision reader.

[2] = tested on: RAW264.7 phosphorylated c-Jun (Ser63); experiment: RAW264.7 phosphorylated c-Jun whole cell assay; format: cell-based; conditions: Mus musculus; cytological assay, activity level; lipopolysaccharide-activated RAW264.7 cells, phospho-c-Jun (Ser63) ELISA
Procedure: RAW264.7 (ATCC TIB-71) cells were purchased from BeNa Culture Collection and maintained in a high-glucose DMEM medium (Gibco) containing 10% fetal bovine serum (Gibco) and 1% penicillin-streptomycin (Gibco). All cells were cultured at 37° C. in 95% air and 5% CO2. All cells were seeded into 120 μL of cell culture medium in a 96-well plate at a density of 2×10^5 cells per well. The stock solution of compound (15 mM) was serially diluted in DMSO (Sigma) and further diluted in growth medium, and it was then added at 15 μL per well as a 10× concentrated solution, well mixed with the cells and incubated with the cells for 30 min. Concentration of the compound vehicle (DMSO) in each well was 0.2%. After incubation for 30 min, the cells were activated with […] lipopolysaccharide (Sigma). Lipopolysaccharide was added to the growth medium as a 10× concentrated solution at 15 μL per well. The cell plate was incubated for 1 h, and then all the medium was removed. The level of C-Jun protein with phosphorylation of serine at site 63 was measured using the whole cell lysate kit-phosphorylated C-Jun assay (PathScan® Phospho-c-Jun (Ser63) Sandwich ELISA Kit) (CST, 7145C) according to the manufacturer's instructions.

T1 sequence (P45983 whole entry): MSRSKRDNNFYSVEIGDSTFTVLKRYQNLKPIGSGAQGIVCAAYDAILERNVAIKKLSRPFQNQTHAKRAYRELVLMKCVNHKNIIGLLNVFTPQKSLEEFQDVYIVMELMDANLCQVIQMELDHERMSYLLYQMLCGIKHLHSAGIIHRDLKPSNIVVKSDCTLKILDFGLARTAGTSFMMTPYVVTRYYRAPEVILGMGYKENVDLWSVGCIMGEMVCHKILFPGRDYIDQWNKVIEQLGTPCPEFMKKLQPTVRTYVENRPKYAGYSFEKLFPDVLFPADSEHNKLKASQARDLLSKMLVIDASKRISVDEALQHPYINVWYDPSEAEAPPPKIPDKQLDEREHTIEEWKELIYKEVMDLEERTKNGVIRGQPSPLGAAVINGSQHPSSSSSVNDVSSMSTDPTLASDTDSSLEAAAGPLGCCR

SMILES	IC50 [1]	IC50 [2]
C[C@@H]1CC[C@@H](Nc2nc(NC(C)(C)C)ncc2C#N)C[C@H]1O [Compound T001A, 2-(tert-butylamino)-4-(((1R,3R,4R)-3-hydroxy-4-methylcyclohexyl)amino) pyrimidine-5-carbonitrile]	100 to 500 nM	100 to 500 nM
C[C@@H]1CC[C@@H](Nc2nc(Nn3cnnc3)ncc2C(N)=O)C[C@H]1O [Compound T004, 2-((4H-1,2,4-triazol-4-yl)amino)-4-(((1R, 3R,4R)-3-hydroxy-4-methylcyclohexyl)amino)pyrimidine-5-carboxamide]	> 1000 nM	> 1000 nM
C[C@@H]1CC[C@@H](Nc2nc(NC(C)(C)C)ncc2C(C)(C)O)C[C@H]1O [Compound T005, (1R,2R,5R)-5-((2-(tert-butylamino)-5-(2-hydroxypropan-2-yl)pyrimidin-4-yl)amino)-2-methylcyclohexan-1-ol]	> 1000 nM	> 1000 nM
CC(C)(C)Nc1ncc(C(N)=O)c(N2CCC(O)CC2)n1 [Compound T006, 2-(tert-butylamino)-4-(4-hydroxypiperidin-l-yl)pyrimidine-5-carboxamide]	> 1000 nM	> 1000 nM
CC(C)(C)Nc1ncc(C(N)=O)c(NC2CCCN(C(=O)CC#N)C2)n1 (stereo not shown) [Compound T007, 2-(tert-butylamino)-4-((1-(2-cyanoacetyl)piperidin-3-yl)amino)pyrimidine-5-carboxamide]	> 1000 nM	> 1000 nM
CC(C)(C)Nc1ncc(C(N)=O)c(NC2CCCN(C(=O)CC(=O)O)C2)n1 (stereo not drawn) [Compound T008, 3-(3-((2-(tert-butylamino)-5-carbamoylpyrimidin-4-yl)amino)piperidin-l-yl)-3-oxopropanoic acid]	> 1000 nM	> 1000 nM
CC(C)(C)Nc1ncc(C(N)=O)c(NCC2CCC(=O)N2)n1 (stereo not shown) [Compound T009, 2-(tert-butylamino)-4-(((5-oxopyrrolidin-2-yl)methyl)amino)pyrimidine-5-carboxamide]	> 1000 nM	> 1000 nM
COc1ccc(Nc2ncc(C(N)=O)c(N[C@@H]3CC[C@@H](C)[C@H](O)C3)n2)cc1 [Compound T010, 4-(((1R,3R,4R)-3-hydroxy-4-methylcyclohexyl)amino)-2-((4-methoxyphenyl)amino) pyrimidine-5-carboxamide]	< 100 nM	< 100 nM
CC(C)(C)Nc1ncc(C(N)=O)c(Nc2cccc(C(=O)O)c2)n1 [Compound T011, 3-((2-(tert-butylamino)-5-carbamoylpyrimidin-4-yl)amino) benzoic acid]	500 to 1000 nM	> 1000 nM

Continued, values first:

IC50 [1]	IC50 [2]	SMILES
< 100 nM	100 to 500 nM	C[C@@H]1CC[C@@H](Nc2nc(NC(C)(C)C)ncc2C(N)=S)C[C@H]1O [Compound T001, 2-(tert-butylamino)-4-(((1R,3R,4R)-3-hydroxy-4-methylcyclohexyl)amino) pyrimidine-5-carbothioamide]
< 100 nM	100 to 500 nM	C[C@@H]1CC[C@@H](Nc2nc(NC(C)(C)C)ncc2/C(N)=N\O)C[C@H]1O [Compound T002, (E)-2-(tert-butylamino)-N′-hydroxy-4-(((1R,3R,4R)-3-hydroxy-4-methylcyclohexyl)amino)pyrimidine-5-carboximidamide]
500 to 1000 nM	> 1000 nM	C[C@@H]1CC[C@@H](Nc2nc(NC(C)(C)C)ncc2C(=N)N)C[C@H]1O [Compound T003, 2-(tert-butylamino)-4-(((1R,3R,4R)-3-hydroxy-4-methylcyclohexyl)amino) pyrimidine-5-carboximidamide]
> 1000 nM	> 1000 nM	COC(=O)c1cnc(NC(C)(C)C)nc1N[C@@H]1CC[C@@H](C)[C@H](O)C1 [Compound T005A, Methyl 2-(tert-butylamino)-4-(((IR,3R,4R)-3-hydroxy-4-methylcyclohexyl)amino) pyrimidine-5-carboxylate]
> 1000 nM	> 1000 nM	C[C@@H]1CC[C@@H](Nc2nc(NC(C)(C)C)ncc2F)C[C@H]1O [Compound T012, (1R,2R,5R)-5-((2-(tert-butylamino)-5-fluoropyrimidin-4-yl)amino)-2-methylcyclohexan-1-ol]
